Data taken from a compilation of properties of binary mixtures (doi:10.1021/acs.jpcc.9b07923).

Test: xn = mol fraction of the nth substance listed
Conditions: 100 kPa

Fc1ccccn1 + Fc1cccc[nH+]1.O=S(=O)([O-])C(F)(F)F
Conditions	electrical conductivity [S/m]
242.2 K, x1 = 0.95	0.091
242.4 K, x1 = 0.5	0.0018
242.6 K, x1 = 0.86	0.075
244.9 K, x2 = 0.01	0.083
247.7 K, x1 = 0.9	0.109
251.9 K, x1 = 0.95	0.118
252.3 K, x1 = 0.86	0.113
252.8 K, x1 = 0.5	0.0037
254.7 K, x2 = 0.01	0.102
257.7 K, x1 = 0.9	0.168
262 K, x1 = 0.95	0.353
262.5 K, x2 = 0.01	0.12
262.6 K, x1 = 0.9	0.201
262.7 K, x1 = 0.86	0.161
267.6 K, x1 = 0.86	0.187
267.6 K, x1 = 0.9	0.24
271.8 K, x1 = 0.95	0.445
272.4 K, x1 = 0.9	0.279
272.5 K, x1 = 0.86	0.229
272.6 K, x2 = 0.01	0.137
272.7 K, x1 = 0.5	0.0132
277.5 K, x1 = 0.9	0.532
277.9 K, x1 = 0.86	0.295
282.6 K, x2 = 0.01	0.156
282.9 K, x1 = 0.86	0.408
287.4 K, x1 = 0.5	0.0369
287.7 K, x1 = 0.9	0.608
287.7 K, x2 = 0.01	0.161
292.1 K, x1 = 0.95	0.596
292.2 K, x1 = 0.5	0.0485
292.6 K, x1 = 0.86	0.658
296.9 K, x1 = 0.95	0.644
297.4 K, x1 = 0.5	0.0902
297.6 K, x1 = 0.86	0.711
297.6 K, x2 = 0.01	0.189
302.3 K, x1 = 0.5	0.185
302.5 K, x2 = 0.01	0.204
303 K, x1 = 0.86	0.769
303.3 K, x1 = 0.95	0.664
